Experimental data taken from paper PMC10541190 (The Journal of Clinical Investigation, 2023).

Columns and labels:
ErbB1 = details: cited from earlier work
BTK = details: cited from earlier work
MAP2K5 = details: cited from earlier work
[1] = system: SARS-CoV-2 (USA-WA1/2020); experiment: microbe, parasite or virus in culture; type: cell-based; details: Severe acute respiratory syndrome coronavirus 2, Calu-3, read-out: EC50, SARS-CoV-2 infection
ErbB4 = details: cited from earlier work
BLK = details: cited from earlier work
ErbB2 = details: cited from earlier work
VEEV (TC-83) = experiment: microbe, parasite or virus in culture; type: cell-based; details: Venezuelan equine encephalitis virus, U-87 MG, read-out: EC50, VEEV (TC-83) infection
JAK = details: cited from earlier work
ErbB1 (EGFR) = details: read-out: KD of binding or IC50 (nM), ErbB1; cited from earlier work
in vitro [2] = details: human
in vitro [3] = details: human; remark: listed apart in the source
SRMS = details: cited from earlier work
ErbB3 = details: cited from earlier work

C=CC(=O)N1CCC[C@@H](n2nc(-c3ccc(Oc4ccccc4)cc3)c3c(N)ncnc32)C1 [Ibrutinib]
% of control, ErbB1 (ErbB1): 1.8 nM 1.8% | Other targets: BTK (% of control) (BTK): JAK (0%), BTK (0%), SRMS (0%), BLK (0.1%), ErbB3 (0.1%), MAP2K5 (0.2%) | Other targets: MAP2K5 (% of control) (MAP2K5): JAK (0%), BTK (0%), SRMS (0%), BLK (0.1%), ErbB3 (0.1%), MAP2K5 (0.2%) | EC50 [1]: 800 nM | % of control, ErbB4 (ErbB4): 1.0 nM 0% | Other targets: BLK (% of control) (BLK): JAK (0%), BTK (0%), SRMS (0%), BLK (0.1%), ErbB3 (0.1%), MAP2K5 (0.2%) | % of control, ErbB2 (ErbB2): 12.1 nM 0% | EC50 (VEEV (TC-83)): 500 nM | Other targets: JAK (% of control) (JAK): JAK (0%), BTK (0%), SRMS (0%), BLK (0.1%), ErbB3 (0.1%), MAP2K5 (0.2%) | IC50 (ErbB1 (EGFR)): 1.8 nM | CC50 (in vitro [2]): > 20 µM | CC50 (in vitro [3]): > 20 µM | Other targets: SRMS (% of control) (SRMS): JAK (0%), BTK (0%), SRMS (0%), BLK (0.1%), ErbB3 (0.1%), MAP2K5 (0.2%) | Other targets: ErbB3 (% of control) (ErbB3): JAK (0%), BTK (0%), SRMS (0%), BLK (0.1%), ErbB3 (0.1%), MAP2K5 (0.2%)
